Laboratory results from patent US10174013B2, “Benzimidazole derivatives as kinase inhibitors” (SELVITA S.A., priority 2012, dated 2019).
Where a name gives a salt, the structure may show the parent alone. Read-outs that look alike come from different tables or passages of the source.

Experiments:
HepG2 cells = assay: Growth inhibition, MTS assay, HepG2; format: cell-based, Human; settings: MTS cell viability, read-out: HepG2 ED50
MV4-11 cells = assay: Growth inhibition, MTS assay, MV4-11; format: cell-based, Human; settings: MTS cell viability, read-out: MV4-11 ED50
SW-480 cells = assay: Growth inhibition, MTS assay, SW-480; format: cell-based, Human; settings: 72 hours, MTS cell viability, read-out: SW-480 ED50
Excerpt: (§1) The following cell lines, were obtained and used in tests as outlined below: • Human myelomonocytic, biphenotypic leukemia MV4-11 cells (harboring a Flt3-ITD mutation); • Human Acute Myeloid Leukemia MOLM16 cells; • Human Acute Myeloid Leukemia MOLM13 cells (harboring a Flt3-ITD mutation); • Human Myeloid Leukemia KG-1 cells; • Human erythroleukemia HEL92 cells; • Human mantle cell lymphoma Jeko-1 cells; • Human hepatocellular carcinoma HepG2 cells; and • Human colon adenocarcinoma SW-480 cells.
(§2) The assays were carried out according to the following protocol, which is described as an example for the MV4-11 cells:
(§3) Ten thousand MV4-11 cells were inoculated into each well of a 96-well microplate (manufactured by Corning Corp.) using Iscove's MDM medium (culture medium) containing 10% fetal calf serum (FCS). The same day, a dimethyl sulfoxide (DMSO) solution of each test compound prepared in a concentration of 10 mmol/L was further diluted with DMSO to the desired concentrations (0.1, 0.5, 1, 2.5, 5 and 10 micromol/L), and the diluted solution was added to each well. The individual wells were further cultured in 5% carbon dioxide at 37° C. for 72 hours. […] Briefly, 10 μl MTS (3-(4,5-Dimethyl-2-thiazolyl)-5-(carboxymethoxyphenyl)-2-(4-sulfophenyl)-2H-tetrazolium was added to each well, and culturing was performed in 5% carbon dioxide at 37° C. for 2 hours. After this incubation and using a microplate spectrophotometer (Synergy 2 multi-mode microplate reader (BioTek)), the absorbance of each well was measured at 490 nm. The value for cells not incubated with a test compound was designated as 100%. By comparing these values with the absorbance difference obtained at the well in which each test compound was added, the cell viability (% viability) after treatment with the test compound was calculated.

Pim-1 = Pim-1 (Homo sapiens (Human), UniProt P11309); assay: ADP-Glo Kinase Assay, Pim-1; format: biochemical; settings: 1 μM compound; for inhibition at 1 µM: read-out: Pim-1 % INH (1 μM)
Sequence of Pim-1 (P11309 whole entry): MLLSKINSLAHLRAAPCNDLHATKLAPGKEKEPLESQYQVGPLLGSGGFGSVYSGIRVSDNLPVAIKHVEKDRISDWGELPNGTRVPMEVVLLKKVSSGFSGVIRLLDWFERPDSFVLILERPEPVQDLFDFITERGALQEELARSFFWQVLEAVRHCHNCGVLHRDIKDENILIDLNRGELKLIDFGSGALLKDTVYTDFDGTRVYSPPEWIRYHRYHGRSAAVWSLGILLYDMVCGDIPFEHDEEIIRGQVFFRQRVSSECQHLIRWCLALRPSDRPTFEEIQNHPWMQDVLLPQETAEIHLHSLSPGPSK
Procedure, shortened: (§4)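 ADP-Glo luminescent ADP detection of human kinase activity in 5 mM MOPS pH 7.5, 5 mM MgCl2, 0.4 mM EDTA, 1.5 mM DTT. ATP at each kinase's apparent Km; compounds diluted to 1000 nM in assay buffer. Percent inhibition from normalised luminescence.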

Jeko-1 cells = assay: Growth inhibition, MTS assay, Jeko-1; format: cell-based, Human; settings: 72 hours, MTS cell viability, read-out: Jeko-1 ED50
Excerpt: as §1, §2, §3

FLT3wt = FLT3wt (Homo sapiens (Human), UniProt P36888); assay: ADP-Glo Kinase Assay, Flt3 wt; format: biochemical; settings: 1 μM compound; for inhibition at 1 µM: read-out: Flt3wt % INH (1 μM)
Sequence of FLT3wt (P36888 27-993): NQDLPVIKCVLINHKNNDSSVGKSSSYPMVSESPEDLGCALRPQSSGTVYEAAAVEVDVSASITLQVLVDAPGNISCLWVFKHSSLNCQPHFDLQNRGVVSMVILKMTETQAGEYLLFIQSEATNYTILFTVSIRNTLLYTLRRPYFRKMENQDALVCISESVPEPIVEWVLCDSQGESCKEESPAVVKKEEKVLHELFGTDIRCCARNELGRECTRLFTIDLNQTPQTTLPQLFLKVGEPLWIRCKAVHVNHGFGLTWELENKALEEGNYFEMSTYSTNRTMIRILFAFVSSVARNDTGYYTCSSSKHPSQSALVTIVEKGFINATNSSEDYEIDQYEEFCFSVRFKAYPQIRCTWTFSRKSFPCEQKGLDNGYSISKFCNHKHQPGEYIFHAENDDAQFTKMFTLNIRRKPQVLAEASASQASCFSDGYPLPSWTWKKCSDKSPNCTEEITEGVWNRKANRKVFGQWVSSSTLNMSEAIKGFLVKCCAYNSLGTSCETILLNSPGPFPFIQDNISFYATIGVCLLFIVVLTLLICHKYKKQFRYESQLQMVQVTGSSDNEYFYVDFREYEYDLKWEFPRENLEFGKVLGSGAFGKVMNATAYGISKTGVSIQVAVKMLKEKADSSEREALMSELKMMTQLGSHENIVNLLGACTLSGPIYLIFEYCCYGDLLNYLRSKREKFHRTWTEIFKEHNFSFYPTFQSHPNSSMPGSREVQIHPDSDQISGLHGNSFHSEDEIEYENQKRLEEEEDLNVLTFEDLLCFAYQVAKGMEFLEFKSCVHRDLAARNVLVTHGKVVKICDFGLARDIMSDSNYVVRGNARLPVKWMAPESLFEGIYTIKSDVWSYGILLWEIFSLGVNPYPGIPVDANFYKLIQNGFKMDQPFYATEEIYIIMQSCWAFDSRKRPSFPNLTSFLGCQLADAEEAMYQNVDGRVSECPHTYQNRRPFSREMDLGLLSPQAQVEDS
Procedure, shortened: as §4

CDK2/E = CDK2/E (Homo sapiens (Human), UniProt P24941); assay: ADP-Glo Kinase Assay, CDK2/E; format: biochemical; settings: 1 μM compound; for inhibition at 1 µM: read-out: CDK2/E % INH (1 μM)
Procedure, shortened: as §4

Pim-2 = Pim-2 (Homo sapiens (Human), UniProt Q9P1W9); assay: ADP-Glo Kinase Assay, Pim-2; format: biochemical; settings: 1 μM compound; for inhibition at 1 µM: read-out: Pim-2 % INH (1 μM)
Sequence of Pim-2 (Q9P1W9 whole entry): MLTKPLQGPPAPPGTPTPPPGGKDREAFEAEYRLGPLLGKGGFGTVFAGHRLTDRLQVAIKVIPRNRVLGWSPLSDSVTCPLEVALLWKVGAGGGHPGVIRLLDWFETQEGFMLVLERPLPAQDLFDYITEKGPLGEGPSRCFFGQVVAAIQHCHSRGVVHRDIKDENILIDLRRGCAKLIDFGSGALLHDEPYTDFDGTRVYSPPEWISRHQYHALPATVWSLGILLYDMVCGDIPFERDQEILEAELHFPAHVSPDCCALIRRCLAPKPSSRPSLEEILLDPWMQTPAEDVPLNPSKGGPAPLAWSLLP
Procedure, shortened: as §4

HEL92 cells = assay: Growth inhibition, MTS assay, HEL92; format: cell-based, Human; settings: MTS cell viability, read-out: HEL92 ED50
Pim-3 = Pim-3 (Homo sapiens (Human), UniProt Q86V86); assay: ADP-Glo Kinase Assay, Pim-3; format: biochemical; settings: 1 μM compound; for inhibition at 1 µM: read-out: Pim-3 % INH (1 μM)
Procedure, shortened: as §4

DYRK1 = DYRK1 (Homo sapiens (Human), UniProt Q13627); assay: ADP-Glo Kinase Assay, DYRK1; format: biochemical; settings: 1 μM compound; for inhibition at 1 µM: read-out: DYRK1A % INH (1 μM)
Procedure, shortened: as §4

hERG potassium channel = hERG potassium channel (Homo sapiens (Human), UniProt Q12809); assay: hERG automated patch clamp assay (QPatch HT)
Sequence of hERG potassium channel (Q12809 whole entry): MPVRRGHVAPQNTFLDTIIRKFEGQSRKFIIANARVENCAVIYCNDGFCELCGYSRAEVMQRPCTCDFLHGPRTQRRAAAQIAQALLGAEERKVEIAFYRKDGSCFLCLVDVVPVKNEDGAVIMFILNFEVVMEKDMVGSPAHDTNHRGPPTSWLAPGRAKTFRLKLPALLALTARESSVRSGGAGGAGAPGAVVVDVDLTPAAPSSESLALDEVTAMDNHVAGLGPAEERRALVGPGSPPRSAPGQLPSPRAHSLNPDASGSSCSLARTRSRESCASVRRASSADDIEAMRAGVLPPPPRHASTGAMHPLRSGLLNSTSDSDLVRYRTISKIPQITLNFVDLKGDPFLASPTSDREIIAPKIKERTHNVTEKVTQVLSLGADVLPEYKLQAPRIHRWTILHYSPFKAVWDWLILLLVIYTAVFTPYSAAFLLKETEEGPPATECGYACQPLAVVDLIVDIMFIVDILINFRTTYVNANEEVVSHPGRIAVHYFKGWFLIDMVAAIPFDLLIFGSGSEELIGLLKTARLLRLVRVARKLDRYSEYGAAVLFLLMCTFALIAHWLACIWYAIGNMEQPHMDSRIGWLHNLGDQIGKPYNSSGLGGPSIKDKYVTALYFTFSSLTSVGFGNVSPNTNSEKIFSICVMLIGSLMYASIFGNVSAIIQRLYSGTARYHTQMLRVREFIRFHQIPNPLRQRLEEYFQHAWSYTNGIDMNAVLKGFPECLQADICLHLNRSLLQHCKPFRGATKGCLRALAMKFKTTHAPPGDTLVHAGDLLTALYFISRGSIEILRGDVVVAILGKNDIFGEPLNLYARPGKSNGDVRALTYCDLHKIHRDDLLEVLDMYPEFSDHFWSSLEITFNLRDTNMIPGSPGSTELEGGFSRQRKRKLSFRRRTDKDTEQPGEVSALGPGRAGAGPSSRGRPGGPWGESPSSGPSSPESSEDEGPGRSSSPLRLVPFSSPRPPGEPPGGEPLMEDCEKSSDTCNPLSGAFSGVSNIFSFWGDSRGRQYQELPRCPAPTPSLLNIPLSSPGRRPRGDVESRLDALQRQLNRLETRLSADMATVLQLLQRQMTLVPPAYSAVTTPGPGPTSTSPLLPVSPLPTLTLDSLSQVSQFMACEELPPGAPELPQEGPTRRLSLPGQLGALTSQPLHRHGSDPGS
Procedure: The hERG (human ether-A-go-go-related gene) channel corresponds to an important anti-target for potential new drugs since its inhibition may lead to sudden death. In order to establish whether the compounds of the present invention act on hERG, the following experiment was carried out.
The in vitro effects of the compounds indicated in Table 5 on the hERG potassium channel current (a surrogate for Iκr, the rapidly activating, delayed rectifier cardiac potassium current) expressed in mammalian cells were evaluated at room temperature using the QPatch HT® (Sophion Bioscience A/S, Denmark), an automatic parallel patch clamp system. Each compound indicated in Table 5 was evaluated at 0.1, 1, 3, 10 and 30 μM with each concentration tested in a minimum of two cells (n≥2). The duration of exposure to each compound concentration was 3 minutes.

| IC50 (HepG2 cells; Homo sapiens, HepG2, 72 h) [nM] | IC50 (MV4-11 cells; Homo sapiens, MV4-11, 72 h) [nM] | IC50 (SW-480 cells; Homo sapiens, SW480) [nM] | inhibition at 1 µM (Pim-1) [%] | inhibition at 1 µM (DYRK1) [%] | inhibition at 1 µM (FLT3wt) [%] | inhibition at 1 µM (CDK2/E) [%] | inhibition at 1 µM (Pim-3) [%] | inhibition at 1 µM (Pim-2) [%] | Compound | IC50 (HEL92 cells; Homo sapiens, 72 h) [nM] | IC50 (Jeko-1 cells; Homo sapiens, JeKo-1) [nM] | also measured |
| --- | --- | --- | --- | --- | --- | --- | --- | --- | --- | --- | --- | --- |
|  |  |  |  |  |  |  |  |  | NCCCNc1nc2c([N+](=O)[O-])c(Br)c(Br)cc2n1CC1CC1 [Example 1AB] |  |  | IC50 (HepG2 cells; 72 hours): 2300 nM; IC50 (MV4-11 cells; 72 hours): 2800 nM; IC50 (SW-480 cells): 3200 nM; Pim-1 % INH (1 μM) (Pim-1): >95%; IC50 (Jeko-1 cells): 1200 nM; Flt3wt % INH (1 μM) (FLT3wt): <5%; CDK2/E % INH (1 μM) (CDK2/E): <5%; Pim-2 % INH (1 μM) (Pim-2): 46%; IC50 (HEL92 cells; 72 hours): 5800 nM; Pim-3 % INH (1 μM) (Pim-3): 87% |
| 1300 | 1900 | 1200 | 80 | 17 | < 5 | < 5 | > 95 |  | CCn1c(NC2CCCCC2N)nc2c([N+](=O)[O-])c(Br)c(Br)cc21 (stereo not shown) [Example 22L, 1-N-(5,6-dibromo-1-ethyl-4-nitro-1H-1,3-benzodiazol-2-yl)cyclohexane-1,2-diamine] | 3200 |  | IC50 (hERG potassium channel): 850 nM |
| 1500 | 600 | 3300 | > 95 | 35 | 9 | < 5 | > 95 | 37 | CCCn1c(N2CCCC(N)C2)nc2c([N+](=O)[O-])c(Br)c(Br)cc21 (stereo not shown) [Example 1U] | 4700 | 1800 |  |
| 900 | 5500 | 1800 | 79 | 72 | 25 | 15 | 56 | 63 | CC(C)=CCn1c(N2CCNCC2)nc2c([N+](=O)[O-])c(Br)c(Br)cc21 [Example 2E, 5,6-dibromo-1-(3-methylbut-2-en-1-yl)-4-nitro-2-(piperazin-1-yl)-1H-1,3-benzodiazole hydrochloride] | 5400 | 1600 |  |
| > 10000 | 7900 | 6000 |  |  |  |  |  |  | CCn1c(NC2CCC(O)CC2)nc2c([N+](=O)[O-])c(Br)c(Br)cc21 (stereo not shown) [Example 22B, 4-[(5,6-dibromo-1-ethyl-4-nitro-1H-1,3-benzodiazol-2-yl)amino]cyclohexan-1-ol] | 8800 | 3000 |  |
| 1300 | 600 | 3200 | > 95 | 27 | 21 | 7 | > 95 | 81 | CC(C)n1c(N2CCCC(N)C2)nc2c([N+](=O)[O-])c(Br)c(Br)cc21 (stereo not shown) [Example 1T] | 5100 | 1700 |  |
| 1600 | 500 | 3200 | 87 | 50 | 37 | 5 | 71 | 42 | O=[N+]([O-])c1c(Br)c(Br)cc2c1nc(N1CCNCC1)n2C1CC1 [Example 21A, 5,6-dibromo-1-cyclopropyl-4-nitro-2-(piperazin-1-yl)-1H-1,3-benzodiazole trifluoroacetate] | 1900 | 600 |  |
| 6400 | 1700 | 6900 | 67 |  | < 5 | < 5 | 92 |  | CCn1c(N2CCCC2CN)nc2c([N+](=O)[O-])c(Br)c(Br)cc21 (stereo not shown) [Example 1Z] |  | 5600 |  |
| 4900 | 2500 |  | > 95 | 22 | < 5 | < 5 | 83 | 40 | CC(C)n1c(N2CCOC(CN)C2)nc2c([N+](=O)[O-])c(Br)c(Br)cc21 (stereo not shown) [Example 1AQ] | 9600 |  | IC50 (hERG potassium channel; human, 3 min): 1860 nM |
|  |  |  |  |  |  |  |  |  | CCCn1c(NCCCN)nc2c([N+](=O)[O-])c(Br)c(Br)cc21 [Example 1P] |  |  | IC50 (HepG2 cells; 72 hours): 1500 nM; IC50 (MV4-11 cells; 72 hours): 1400 nM; IC50 (SW-480 cells): 2900 nM; Pim-1 % INH (1 μM) (Pim-1): >95%; DYRK1A % INH (1 μM) (DYRK1): 23%; IC50 (hERG potassium channel): 1880 nM; Flt3wt % INH (1 μM) (FLT3wt): 37%; CDK2/E % INH (1 μM) (CDK2/E): <5%; Pim-2 % INH (1 μM) (Pim-2): 36%; IC50 (HEL92 cells; 72 hours): 7000 nM; Pim-3 % INH (1 μM) (Pim-3): 77% |
| 1200 | 1100 | 500 |  |  |  |  |  |  | CCn1c(N2CCN(CCCN3CCNCC3)CC2)nc2c([N+](=O)[O-])c(Br)c(Br)cc21 [Example 22R, 5,6-dibromo-1-ethyl-4-nitro-2-{4{3-(piperazin-1-yl)propyl]piperazin-1-yl}-1H-1,3-benzodiazole] | 2900 |  | IC50 (hERG potassium channel): 1780 nM |
| 900 | 700 | 3100 | > 95 | 11 | < 5 | < 5 | > 95 |  | CC(C)Cn1c(N2CCCC(N)C2)nc2c([N+](=O)[O-])c(Br)c(Br)cc21 (stereo not shown) [Example 1V] | 5600 | 2900 |  |

| Compound | IC50 (HepG2 cells; Homo sapiens, HepG2, 72 h) [nM] | IC50 (MV4-11 cells; Homo sapiens, MV4-11, 72 h) [nM] | IC50 (SW-480 cells; Homo sapiens, SW480) [nM] | inhibition at 1 µM (Pim-1) [%] | inhibition at 1 µM (DYRK1) [%] | inhibition at 1 µM (FLT3wt) [%] | inhibition at 1 µM (CDK2/E) [%] | inhibition at 1 µM (Pim-3) [%] | inhibition at 1 µM (Pim-2) [%] | IC50 (HEL92 cells; Homo sapiens, 72 h) [nM] | IC50 (Jeko-1 cells; Homo sapiens, JeKo-1) [nM] | also measured |
| --- | --- | --- | --- | --- | --- | --- | --- | --- | --- | --- | --- | --- |
| CCn1c(N2CCNC(=O)C2)nc2c([N+](=O)[O-])c(Br)c(Br)cc21 [Example 22A, 4-(5,6-dibromo-1-ethyl-4-nitro-1H-1,3-benzodiazol-2-yl)piperazin-2-one] |  |  |  | 65 |  | 8 | < 5 | 28 |  |  |  | IC50 (hERG potassium channel; read-out: hERG IC50, automated patch clamp, room temperature, 0.1-30 μM, 3 minutes exposure): 10100 nM |
